Experimental findings from patent US10703746B2, “Mutant IDH1 inhibitors useful for treating cancer” (THE UNITED STATES OF AMERICA, AS REPRESENTED BY THE …, priority 2014, dated 2020) are described below.

Experiment [1] deals with IDH1 R132H (Homo sapiens, UniProt O75874, R132H). The experiment in a line: IDH1 R132H enzymatic assay (NADPH depletion coupled to diaphorase/resazurin). The format is biochemical. To be noted: IDH1 R132H enzymatic inhibition, IC50 class. (The colour change of resazurin is a common sign of viable cells or microbes.)
In experiment [2] the target is IDH1 R132C (Homo sapiens, UniProt O75874, R132C). Briefly: IDH1 R132C enzymatic assay (NADPH depletion coupled to diaphorase/resazurin). In kind it is biochemical. To be noted: IDH1 R132C enzymatic inhibition, IC50 class. In outline: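 NADPH depletion, read via diaphorase/resazurin coupling, after adding substrate at 0.6 mM α-KG and 0.012 mM NADPH. Beforehand, 0.00032 mg/mL enzyme sat with compound 30 min at room temperature in pH 6.5 potassium phosphate buffer with MgCl2, glycerol and BSA.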

A value given as a limit tells only on which side of the number the result lay.

Chain of IDH1 R132H (O75874 whole entry R132H): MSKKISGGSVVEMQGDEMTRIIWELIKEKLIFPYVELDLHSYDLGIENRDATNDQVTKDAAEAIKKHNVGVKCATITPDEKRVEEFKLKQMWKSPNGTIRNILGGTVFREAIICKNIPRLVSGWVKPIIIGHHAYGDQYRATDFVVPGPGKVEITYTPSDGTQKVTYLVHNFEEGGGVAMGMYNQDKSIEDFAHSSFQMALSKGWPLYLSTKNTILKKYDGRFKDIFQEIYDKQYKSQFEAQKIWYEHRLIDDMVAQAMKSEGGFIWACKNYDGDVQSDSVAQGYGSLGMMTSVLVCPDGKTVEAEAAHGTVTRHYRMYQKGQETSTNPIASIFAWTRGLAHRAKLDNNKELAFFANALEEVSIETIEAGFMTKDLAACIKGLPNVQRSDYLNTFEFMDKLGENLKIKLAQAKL
Chain of IDH1 R132C (O75874 whole entry R132C): as the sequence (O75874 whole entry R132H) above, with H132C counted along it

Take `CCCSc1ccccc1-n1c2c(cc(-c3nc(-c4ccc(Cl)cc4)cs3)c1=O)C(=O)CC(C)(C)C2` [Compound 135]: the IC50 in experiment [1] is 1000 to 5000 nM; in experiment [2], 300 to 1000 nM.

For the compound `COc1cc(C(=O)O)ccc1-n1c2c(cc(-c3nc(-c4ccc(Cl)cc4)cs3)c1=O)C(=O)CC(C)(C)C2` [Compound 136], the IC50 in experiment [1] and in experiment [2] was over 20000 nM in each case.

For `CCc1cccc(CC)c1-n1c(CC(C)C)c(C(=O)N2CCNCC2)cc(-c2nc(-c3ccc(N4CCNCC4)cc3)c(C)s2)c1=O` [Compound 137], the IC50 in experiment [1] and in experiment [2] was over 20000 nM in each case.

For `CCc1cccc(CC)c1-n1c(C)c(C(=O)N2CCNC(=O)C2)cc(-c2nc(-c3ccc(Cl)cc3)cs2)c1=O` [Compound 138], the values for the IC50 in experiment [1] and in experiment [2] were under 300 nM and 1000 to 5000 nM, respectively.

Regarding `CCc1cccc(CC)c1-n1c(C)c(C(=O)N2CC(N)C2)cc(-c2nc(-c3ccc(Cl)cc3)cs2)c1=O` [Compound 139], the IC50 in experiment [1] and in experiment [2] was 1000 to 5000 nM throughout.

For `CCc1cccc(CC)c1-n1c(CC(C)C)c(C(=O)NC[C@H](NC(C)=O)C(=O)O)cc(-c2nc(-c3ccc(Cl)cc3)cs2)c1=O` [Compound 140], the IC50 in experiment [1] and in experiment [2] was 5000 to 20000 nM in each case.

As for `CCc1cccc(CC)c1-n1c(CC(C)C)c(C(=O)N2CCN[C@@H](C)C2)cc(-c2nc(-c3ccc(Cl)cc3)cs2)c1=O` [Compound 141], the values for the IC50 in experiment [1] and in experiment [2] were 300 to 1000 nM and under 300 nM, respectively.

On to `CCc1cccc(CC)c1-n1c(C)c(C(=O)N2CCNC[C@H]2C)cc(-c2nc(-c3ccc(Cl)cc3)cs2)c1=O` [Compound 142], for which the IC50 in experiment [1] was under 300 nM; in experiment [2] it was 300 to 1000 nM.

`CCc1cccc(CC)c1-n1c(C)c(C(=O)O)cc(-c2nc(-c3ccc(Cl)cc3)cs2)c1=O` [Compound 143]: the IC50 in experiment [1] and in experiment [2] was 5000 to 20000 nM each time.

In the case of `COc1ccc(OC)c(-n2c3c(cc(-c4nc(-c5ccc(Cl)cc5)cs4)c2=O)C=CC(C)(C)C3)c1` [Compound 144], the IC50 in experiment [1] and in experiment [2] was 1000 to 5000 nM in each case.

As to `CCc1cccc(CC)c1-n1c(CC(C)C)c(C(=O)N2CCNCC2c2ccccc2)cc(-c2nc(-c3ccc(Cl)cc3)cs2)c1=O` (stereo not drawn) [Compound 145], the IC50 in experiment [1] is 300 to 1000 nM; in experiment [2], under 300 nM.

Regarding `CCc1cccc(CC)c1-n1c(C)c(C(=O)NCC(C)(C)C)cc(-c2nc(-c3ccc(Cl)cc3)cs2)c1=O` [Compound 146], the IC50 was over 20000 nM in experiment [1] and 1000 to 5000 nM in experiment [2].

Consider `CCc1cccc(CC)c1-n1c(CC(C)C)c(C(=O)N2CCNCC2C(=O)OC)cc(-c2nc(-c3ccc(Cl)cc3)cs2)c1=O` (stereo not drawn) [Compound 147], for which the IC50 is 1000 to 5000 nM in experiment [1] and under 300 nM in experiment [2].

On to `CCc1cccc(CC)c1-n1c2c(cc(-c3nc(-c4ccc(F)cc4)cs3)c1=O)C(=O)CC(C)(C)C2` [Compound 148], for which the IC50 in experiment [1] and in experiment [2] was 300 to 1000 nM throughout.

`COc1ccc(OC)c(-n2c3c(cc(-c4nc5ccc(Cl)cc5s4)c2=O)C(=O)CC(C)(C)C3)c1` [Compound 149]: the IC50 in experiment [1] was over 20000 nM; in experiment [2], 1000 to 5000 nM.

For `CC1(C)CC(=O)c2cc(-c3nc(-c4ccc(Cl)cc4)cs3)c(=O)n(-c3ccccc3)c2C1` [Compound 150], the IC50 in experiment [1] and in experiment [2] was 5000 to 20000 nM each time.

With `CCc1cccc(CC)c1-n1c(C)c(C(=O)NC[C@@H](C)O)cc(-c2nc(-c3ccc(Cl)cc3)cs2)c1=O` [Compound 151], the IC50 in experiment [1] is 1000 to 5000 nM; in experiment [2] it was 300 to 1000 nM.

Take `CCc1cccc(CC)c1-n1c(C)c(C(=O)N(C)CCN)cc(-c2nc(-c3ccc(Cl)cc3)cs2)c1=O` [Compound 152]: the IC50 in experiment [1] and in experiment [2] was 1000 to 5000 nM each time.

In the case of `CCc1cccc(CC)c1-n1c(C)c(C(=O)NCCO)cc(-c2nc(-c3ccc(Cl)cc3)cs2)c1=O` [Compound 153], the results for the IC50 in experiment [1] and in experiment [2] were 300 to 1000 nM and 1000 to 5000 nM, respectively.

For the compound `COc1ccc(OC)c(-n2c3c(cc(-n4cnc(-c5ccccc5)c4)c2=O)C(=O)CC(C)(C)C3)c1` [Compound 154], the IC50 in experiment [1] and in experiment [2] was 5000 to 20000 nM each time.

Consider `CCc1cccc(CC)c1-n1c(CC(C)C)c(C(=O)N2CCNC(=O)C2c2ccccc2)cc(-c2nc(-c3ccc(Cl)cc3)cs2)c1=O` (stereo not drawn) [Compound 155], for which the IC50 in experiment [1] was 300 to 1000 nM; in experiment [2], under 300 nM.

As to `CCc1cccc(CC)c1-n1c(C)c(C(=O)N2CCCCC2)cc(-c2nc(-c3ccc(Cl)cc3)cs2)c1=O` [Compound 156], the IC50 in experiment [1] and in experiment [2] was 1000 to 5000 nM in each case.

For `COc1ccc(OC)c(-n2c3c(cc(-c4ccn(-c5ccccc5)n4)c2=O)C(=O)CC(C)(C)C3)c1` [Compound 158], the IC50 in experiment [1] and in experiment [2] was 1000 to 5000 nM in each case.

Take `CCc1cccc(CC)c1-n1c(CC(C)C)c(C(=O)NC2CCCCC2O)cc(-c2nc(-c3ccc(Cl)cc3)cs2)c1=O` (stereo not drawn) [Compound 159]: the IC50 in experiment [1] and in experiment [2] was 1000 to 5000 nM each time.

Consider `CCc1cccc(CC)c1-n1c(CC(C)C)c(C(=O)N2CCNCC2)cc(-c2nc(-c3ccc(C(C)(C)C)cc3)c(C)s2)c1=O` [Compound 160], for which the IC50 in experiment [1] and in experiment [2] was 1000 to 5000 nM in each case.

With `CCc1cccc(CC)c1-n1c2c(cc(-c3nc(-c4cnc(C)nc4)c(C)s3)c1=O)C(=O)CC(C)(C)C2` [Compound 161], the IC50 lay within 5000 to 20000 nM in experiment [1] and 1000 to 5000 nM in experiment [2].

As to `CCc1cccc(CC)c1-n1c2c(cc(-c3nc(-c4ccc(C(=O)O)cc4)cs3)c1=O)C(=O)CC(C)(C)C2` [Compound 162], the IC50 in experiment [1] was over 20000 nM; in experiment [2], 5000 to 20000 nM.

`CCc1cccc(CC)c1-n1c2c(cc(-c3nc(-c4cccc(OC)c4)cs3)c1=O)C(=O)CC(C)(C)C2` [Compound 163]: the IC50 in experiment [1] and in experiment [2] was over 20000 nM in each case.

For `CSc1ccccc1-n1c2c(cc(-c3nc(-c4ccc(Cl)cc4)cs3)c1=O)C(=O)CC(C)(C)C2` [Compound 164], the results for the half-inhibitory concentration (IC50) in experiment [1] and in experiment [2] were 1000 to 5000 nM and 300 to 1000 nM, respectively.

Regarding `COc1ccc(-n2cccc(-c3nc(-c4ccc(Cl)cc4)cs3)c2=O)c(OC)c1` [Compound 165], the IC50 in experiment [1] and in experiment [2] was over 20000 nM throughout.

Take `Cc1ccc(C(=O)O)cc1-n1c2c(cc(-c3nc(-c4ccc(Cl)cc4)cs3)c1=O)C(=O)CC(C)(C)C2` [Compound 166]: the IC50 in experiment [1] was over 20000 nM; in experiment [2], 5000 to 20000 nM.

As to `CC1(C)CC(=O)c2cc(-c3nc(-c4ccc(Cl)cc4)cs3)c(=O)n(-c3ccccc3Cl)c2C1` [Compound 167], the IC50 in experiment [1] and in experiment [2] was under 300 nM each time.

As for `CCc1cccc(CC)c1-n1c(C(C)C)c(C(=O)N2CCNC(=O)C2)cc(-c2nc(-c3ccc(Cl)cc3)cs2)c1=O` [Compound 168], the IC50 in experiment [1] and in experiment [2] was 300 to 1000 nM in each case.

For `CCc1cccc(CC)c1-n1c(C)c(C(=O)NCCOC)cc(-c2nc(-c3ccc(Cl)cc3)cs2)c1=O` [Compound 169], the IC50 lay within 1000 to 5000 nM in experiment [1] and 300 to 1000 nM in experiment [2].

With `CCc1cccc(CC)c1-n1c(-c2ccccc2)c(C#N)cc(-c2nc(-c3ccc(Cl)cc3)cs2)c1=O` [Compound 170], the IC50 was in the range of 5000 to 20000 nM in experiment [1] and 1000 to 5000 nM in experiment [2].

Consider `CCc1cccc(CC)c1-n1c(CC(C)C)c(C(=O)N2CCNC(C(=O)O)C2)cc(-c2nc(-c3ccc(Cl)cc3)cs2)c1=O` (stereo not drawn) [Compound 171], for which the IC50 in experiment [1] and in experiment [2] was under 300 nM each time.

Consider `CCc1cccc(CC)c1-n1c(CC(C)C)c(C(=O)NC[C@@H](N)C(=O)O)cc(-c2nc(-c3ccc(Cl)cc3)cs2)c1=O` [Compound 172], for which the IC50 in experiment [1] is 300 to 1000 nM; in experiment [2], under 300 nM.

As for `CCc1cccc(CC)c1-n1c2c(cc(-c3nc(-c4ccccc4C)cs3)c1=O)C(=O)CC(C)(C)C2` [Compound 173], the IC50 in experiment [1] and in experiment [2] was 1000 to 5000 nM each time.

Turning to `COc1c(C(=O)O)cccc1-n1c2c(cc(-c3nc(-c4ccc(Cl)cc4)cs3)c1=O)C(=O)CC(C)(C)C2` [Compound 174], the IC50 in experiment [1] was over 20000 nM; in experiment [2], 5000 to 20000 nM.

Turning to `COc1ccc(OC)c(-n2c3c(cc(-c4nc5cc(Cl)ccc5s4)c2=O)C(=O)CC(C)(C)C3)c1` [Compound 175], the IC50 is under 300 nM in experiment [1] and 300 to 1000 nM in experiment [2].

On to `CCc1cccc(CC)c1-n1c(C)c(C(=O)N[C@H](C)CO)cc(-c2nc(-c3ccc(Cl)cc3)cs2)c1=O` [Compound 176], for which the IC50 in experiment [1] and in experiment [2] was 1000 to 5000 nM in each case.

`CC1(C)CC(=O)c2cc(-c3nc(-c4ccc(Cl)cc4)cs3)c(=O)n(-c3cn[nH]c3)c2C1` [Compound 177]: the IC50 in experiment [1] and in experiment [2] was 5000 to 20000 nM throughout.

In the case of `CC(C)c1ccccc1-n1c2c(cc(-c3nc(-c4ccc(Cl)cc4)cs3)c1=O)C(=O)CC(C)(C)C2` [Compound 178], the IC50 in experiment [1] and in experiment [2] was 300 to 1000 nM in each case.

For the compound `CCc1cccc(CC)c1-n1c2c(cc(-c3nc(-c4ccccc4OC)cs3)c1=O)C(=O)CC(C)(C)C2` [Compound 179], the IC50 in experiment [1] and in experiment [2] was 1000 to 5000 nM each time.

For `CCc1cccc(CC)c1-n1c(C)c(C(=O)Nc2ccccc2)cc(-c2nc(-c3ccc(Cl)cc3)cs2)c1=O` [Compound 180], the IC50 in experiment [1] and in experiment [2] was over 20000 nM each time.

Regarding `CCc1cccc(CC)c1-n1c(CC(C)C)c(C(=O)N2CCNCC2)cc(-c2nc(-c3ccc(F)cc3)c(C)s2)c1=O` [Compound 181], the IC50 in experiment [1] and in experiment [2] was under 300 nM each time.

As to `Cc1ccc([N+](=O)[O-])cc1-n1c2c(cc(-c3nc(-c4ccc(Cl)cc4)cs3)c1=O)C(=O)CC(C)(C)C2` [Compound 182], the IC50 in experiment [1] and in experiment [2] was 1000 to 5000 nM in each case.

As to `CCc1cccc(CC)c1-n1c2c(cc(-c3nc(-c4ccc(OC)cc4)cs3)c1=O)C(=O)CC(C)(C)C2` [Compound 183], the IC50 in experiment [1] and in experiment [2] was 300 to 1000 nM each time.

By IC50 is commonly meant the concentration needed to halve the response being measured.
